Here are results for 5 compounds from patent US9340510B2, “Tetrahydroisoquinoline derivatives, pharmaceutical compositions and uses thereof” (Boehringer Ingelheim International GmbH, priority 2014, dated 2016).

human ACC2, sequence (O00763 129-2458): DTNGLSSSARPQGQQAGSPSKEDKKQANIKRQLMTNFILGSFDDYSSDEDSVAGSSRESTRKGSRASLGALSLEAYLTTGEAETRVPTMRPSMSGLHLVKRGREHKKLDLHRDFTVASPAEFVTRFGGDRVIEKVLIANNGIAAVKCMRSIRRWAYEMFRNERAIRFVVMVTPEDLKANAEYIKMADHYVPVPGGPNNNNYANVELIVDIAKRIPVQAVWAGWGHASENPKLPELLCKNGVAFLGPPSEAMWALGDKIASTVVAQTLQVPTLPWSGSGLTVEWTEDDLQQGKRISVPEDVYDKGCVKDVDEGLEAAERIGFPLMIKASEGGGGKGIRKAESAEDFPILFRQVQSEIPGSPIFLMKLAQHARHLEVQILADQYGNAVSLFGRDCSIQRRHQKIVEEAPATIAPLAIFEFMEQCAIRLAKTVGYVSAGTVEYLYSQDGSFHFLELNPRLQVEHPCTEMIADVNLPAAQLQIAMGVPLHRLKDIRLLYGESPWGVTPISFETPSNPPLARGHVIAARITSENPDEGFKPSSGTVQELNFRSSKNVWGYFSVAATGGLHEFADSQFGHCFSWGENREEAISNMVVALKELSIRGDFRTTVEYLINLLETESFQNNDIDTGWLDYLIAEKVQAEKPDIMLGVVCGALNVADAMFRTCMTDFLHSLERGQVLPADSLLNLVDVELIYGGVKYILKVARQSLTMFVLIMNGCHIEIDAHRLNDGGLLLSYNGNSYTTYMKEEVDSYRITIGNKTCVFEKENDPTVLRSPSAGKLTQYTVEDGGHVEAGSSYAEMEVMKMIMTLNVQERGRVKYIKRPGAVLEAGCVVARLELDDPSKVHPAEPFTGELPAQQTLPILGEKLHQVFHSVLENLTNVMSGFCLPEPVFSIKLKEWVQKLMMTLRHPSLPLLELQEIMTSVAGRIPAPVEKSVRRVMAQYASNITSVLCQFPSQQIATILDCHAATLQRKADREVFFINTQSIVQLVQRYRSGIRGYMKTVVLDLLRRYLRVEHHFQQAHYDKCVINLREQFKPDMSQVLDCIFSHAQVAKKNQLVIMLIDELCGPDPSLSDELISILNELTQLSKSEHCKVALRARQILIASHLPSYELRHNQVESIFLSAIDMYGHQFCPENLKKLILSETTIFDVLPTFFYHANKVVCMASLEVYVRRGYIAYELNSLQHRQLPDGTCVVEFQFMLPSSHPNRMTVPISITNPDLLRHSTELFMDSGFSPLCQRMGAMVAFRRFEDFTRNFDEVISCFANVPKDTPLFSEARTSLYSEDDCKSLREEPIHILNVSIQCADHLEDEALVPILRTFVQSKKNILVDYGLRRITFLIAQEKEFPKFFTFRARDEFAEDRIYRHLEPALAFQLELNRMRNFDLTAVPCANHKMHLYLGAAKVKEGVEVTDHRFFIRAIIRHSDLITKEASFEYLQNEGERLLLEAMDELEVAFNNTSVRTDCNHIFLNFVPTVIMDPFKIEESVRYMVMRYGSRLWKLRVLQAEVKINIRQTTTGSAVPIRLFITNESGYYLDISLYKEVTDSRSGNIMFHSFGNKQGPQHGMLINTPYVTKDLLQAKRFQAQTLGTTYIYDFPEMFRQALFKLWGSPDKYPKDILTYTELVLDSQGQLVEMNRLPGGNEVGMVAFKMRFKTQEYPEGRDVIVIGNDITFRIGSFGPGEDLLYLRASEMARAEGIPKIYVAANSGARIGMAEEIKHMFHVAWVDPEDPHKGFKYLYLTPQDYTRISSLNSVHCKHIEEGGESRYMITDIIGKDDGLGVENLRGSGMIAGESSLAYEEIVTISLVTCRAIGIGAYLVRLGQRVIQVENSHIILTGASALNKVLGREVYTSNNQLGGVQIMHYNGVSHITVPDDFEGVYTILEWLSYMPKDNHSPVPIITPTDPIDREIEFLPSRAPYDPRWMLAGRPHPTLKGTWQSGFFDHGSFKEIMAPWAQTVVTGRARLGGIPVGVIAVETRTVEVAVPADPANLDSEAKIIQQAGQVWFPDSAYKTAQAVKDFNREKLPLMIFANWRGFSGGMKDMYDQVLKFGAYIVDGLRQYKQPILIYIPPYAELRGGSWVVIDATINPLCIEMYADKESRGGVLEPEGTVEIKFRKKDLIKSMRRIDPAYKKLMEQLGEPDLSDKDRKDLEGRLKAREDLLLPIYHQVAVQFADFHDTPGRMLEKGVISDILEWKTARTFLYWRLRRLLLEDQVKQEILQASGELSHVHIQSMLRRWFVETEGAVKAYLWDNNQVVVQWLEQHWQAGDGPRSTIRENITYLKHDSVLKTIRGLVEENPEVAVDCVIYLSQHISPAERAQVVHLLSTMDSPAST

The experiment deals with human ACC2 (Homo sapiens (Human), UniProt O00763). Description: ACC2 assay: spectrophotometric 384 well assay (coupled lactate dehydrogenase/pyruvate kinase). The note with it: hACC2 construct lacking the 128 N-terminal amino acids, 25° C., 340 nm. Type of experiment: biochemical. The method, boiled down:
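N-terminally truncated human ACC2 from insect cells; ADP formation coupled via pyruvate kinase/lactate dehydrogenase, NADH loss read at 340 nm over 15 min at 25 °C, pH 7.5. Started with NADH, acetyl-CoA and 500 µM ATP; 1% DMSO. IC50 by nonlinear fit of background-subtracted slopes.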
Broadly, the IC50 is the concentration that gives 50% inhibition. Low values mean higher potency, high ones lower potency. In the case of `C[C@H](NC(=O)CC(=O)N(C)C)c1ccc(CN2CCc3cc(OC[C@@H]4CC4(F)F)ccc3C2)cc1` [Example 2.031], the IC50 was 0.447 µM. Then `C[C@H](NC(=O)c1cncs1)c1ccc(CN2CCc3c(Br)cccc3C2)cc1` [Example 2.010], with 0.179 µM. With `COc1c(OCC2CCC2)ccc2c1CCN(Cc1ccc([C@H](C)NC(C)=O)cc1)C2` [Example 1.073], the IC50 stood at 0.04 µM. Then `CCNC(=O)N[C@@H](C)c1ccc(CN2Cc3ccc(OCC4CC4)cc3C(F)C2)cc1` (some centres unmarked) [Example 5.007], with 0.049 µM; and `CC(O)C(=O)N[C@@H](C)c1ccc(CN2CCc3cc(OC[C@@H]4CC4(F)F)ccc3C2)cc1` (some centres unmarked) [Example 2.027], with 0.13 µM.
